The structures appear in SMILES notation.

Data on 1 molecule can be found in patent US12552813B2, “Heterocyclic substituted pyrimidopyran compound and use thereof” (Medshine Discovery Inc., priority 2023, dated 2026).

What all share (format): cell-based
For assay [1], the system named is KRAS^G12D mutant AsPC-1 cells. In words: AsPC-1 cell proliferation assay (3D-CTG method). Conditions: Homo sapiens, ASPC1, 168 h, Experimental Example 2, 2,000 cells per well, 7 days incubation.
Method: 1) ASPC-1 cells were seeded in a transparent 96-well cell culture plate, at a density of 195 μL of cell suspension per well containing 2,000 cells.
2) The compound to be tested was diluted with 100% DMSO to 10 mM as the 1st concentration and then diluted 5 times by a pipette to the 8th concentration, i.e. from 10 mM to 0.13 M. 2 μL of the gradient-diluted compound was added to 48 μL of cell medium for secondary dilution. After mixed, 5 μL of the secondary-diluted compound was added to the corresponding wells of the cell plate containing 195 μL of cells. The cell plate was put into a carbon dioxide incubator and incubated for 7 days.
3) After incubation, 100 μL of cell supernatant was discarded and 3D-CTG was added at a density of 60 μL per well. The cells were shaken and incubated at room temperature and 200 rpm for 20 min, and incubated in an incubator at room temperature for 1 h.
4) 100 μL of supernatant was pipetted from the well plate and transferred to a 96-well black plate with a clear bottom, and the luminescence was read in the BMG.
The original data was converted into the inhibition rate using equation Inhibition %=(Ave_H−Sample)/(Ave_H−Ave_L), and the IC50 value was obtained by curve fitting through four parameters (log(inhibitor) vs. response—Variable slope mode in GraphPad Prism). • H well: Reading of DM well • L well: Reading of Medium 5.
Assay [2] concerns SW620 (KRAS G12V mutant) cell line. Description: SW620 cell in vitro proliferation assay. The following applies: Homo sapiens, SW-620, 240 h, 1,000 cells per well, 10 days incubation, 3D CellTiter-Glo. On the procedure: RPMI1640 medium, penicillin/streptomycin antibiotics from Gibco, and fetal bovine serum from Hyclone. 3D CellTiter-Glo (cell viability chemiluminescent assay) reagent from Promega. SW620 (KRAS G12V mutant) cell line from ATCC, Envision Multilabel analyzer (PerkinElmer).
The cells were seeded in a 96-well, ultra-low adsorption U-plate, at a density of 80 μL of cell suspension per well containing 1,000 cells. The cell plate was incubated overnight in a carbon dioxide incubator.
The compound to be tested was diluted using a multi-channel pipette by 5 times for 8 concentrations, that was, from 2 mM to 25.6 nM, and double replicates were set up. 78 μL of medium was added to an intermediate plate. Then the gradient-diluted compound was transferred to the intermediate plate at a density of 2 μL per well according to the corresponding position, mixed and transferred at a density of 20 μL per well to a cell plate. […] Another cell plate was prepared, and the signal value read on the day of addition was taken as the maximum value (the Max value in the equation below) to be used in data analysis.
A cell viability chemiluminescent assay reagent was added to the cell plate at a density of 100 μL per well and incubated at room temperature for 30 min to stabilize luminous signals. The readings are taken using a multilabel analyzer. […]
(In general: ATP-based viability assays read luminescence as a measure of living cells.)

For assay [3], the system named is KRAS^G12V mutant H727 cells. In words: H727 cell proliferation assay (3D-CTG method). The following applies: Homo sapiens, NCI-H727, 168 h, 2,000 cells per well, 7 days incubation. On the procedure:
H727 cells from ATCC; RPMI-1640 medium from ATCC; fetal bovine serum from Ausgenex; CellTiter-Glo® 3D assay kit (3D-CTG) from Promega; and CellCarrier-96 Spheroid ULA/CS from PE.
5) The aforementioned cells were seeded in a transparent 96-well cell culture plate, at a density of 195 μL of cell suspension per well containing 2,000 cells.
6) The compound to be tested was diluted with 100% DMSO to 10 mM as the 1st concentration and then diluted 5 times by a pipette to the 8th concentration, i.e. from 10 mM to 0.13 μM. 2 μL of the gradient-diluted compound was added to 48 μL of cell medium for secondary dilution. After mixed, 5 μL of the secondary-diluted compound was added to the corresponding wells of the cell plate containing 195 μL of cells. […]
7) After incubation, 100 μL of cell supernatant was discarded and 3D-CTG was added at a density of 60 μL per well. […] 8) 100 μL of supernatant was pipetted from the well plate and transferred to a 96-well black plate with a clear bottom, and the luminescence was read in the BMG.
The original data was converted into the inhibition rate using equation Inhibition %=(Ave_H−Sample)/(Ave_H−Ave_L), and the IC50 value was obtained by curve fitting through four parameters (log(inhibitor) vs. response—Variable slope mode in GraphPad Prism). • H well: Reading of DMSO well • L well: Reading of Medium 5. […]

Assay [4] concerns KRAS^G12D mutant tumor cell line AsPC-1. Description: Antiproliferative effects of compounds in tumor cell line AsPC-1 (CellTiter-Glo 3D). Conditions: Homo sapiens, ASPC1, Experimental Example 1, 7,000 cells per well, ULA plate, 120 h incubation. As for the experimental part:
The experiment studies the antiproliferative effects of compounds by detecting the effects of the compounds on in vitro cell activity of the KRAS^G12D mutant tumor cell line AsPC-1.
The cell line was AsPC-1. The tumor type was pancreatic cancer. The cell line was cultured by adherent growth using RPMI 1640+10% FBS. • Ultra Low Cluster-96-well plate (Corning-7007) • Greiner CELLSTAR 96-well plate (#655090) • Promega CellTiter-Glo 3D luminescence cell activity assay kit (Promega-G9683) • 2104-10 EnVision reader, PerkinElmer • RPMI 1640, DMEM, PBS (phosphate buffer), FBS (fetal bovine serum), Antibiotic-antimycotic, L-glutamine, and DMSO (dimethyl sulfoxide)
The tumor cell line was incubated in an incubator at 37° C., 5% CO2 under the culture conditions shown by the culture method. Regular passage was conducted, and the cells in the logarithmic growth phase were taken for seeding.
The cell line was AsPC-1, with a density of 7,000 cells (per well).
A cell suspension is added at a density of 135 μL per well to a ULA culture plate, and the same volume of cell-free medium is added to a blank control plate.
The ULA culture plate was centrifuged at room temperature for 10 min at 1,000 rpm immediately after seeding. Caution: Always handle follow-up actions with care after centrifuging to avoid unnecessary shaking. […]
The luminous signals were detected on a 2104 EnVision reader. […]

Consider `C=C1CN2CCC[C@]2(COc2nc3c(c(N4CCCn5nc(C(=O)N(C)C)cc5C4)n2)CO[C@@H](c2c(F)c(N)cc(C#CC)c2C(F)(F)F)C3)C1` (single isomer, unassigned) [Compound 5A], for which the IC50 in assay [1] is 0.0118 µM; in assay [2], 0.0275 µM; in assay [3] it was 0.0459 µM; in assay [4], 0.0061 µM.

As a reminder, the IC50 is the midpoint of a concentration-inhibition curve. Read a low IC50 as greater potency in that assay.
